# Data published in patent US11384312B2, “Fragrance compositions and methods of use thereof” (TAKASAGO INTERNATIONAL CORPORATION, priority 2016, dated 2022).
# What was measured:
# salivary alpha-amylase = experiment: Timed mathematical and word stress test in panelists exposed to fragrance compound; salivary alpha-amylase before vs after stress; format: in vivo, human; conditions: panelists' saliva, before vs immediately after stress test; single fragrance compound in DPG solvent; DPG control 51.9%
# Procedure: (§1) Stress was induced in each panelist using a timed mathematical and word test, which was administered to panelists in a small group competition setting to induce stress in each of the panelists. At set time intervals during the test, each panelist was exposed to either a single fragrance compound or to a DPG control.
# (§2) Saliva was collected for each panelist before and immediately after the stress test. Saliva samples were assayed for salivary alpha-amylase activity and salivary cortisol levels using a commercially available assay kit (e.g., Salimetrics).
# (§3) Table 1-A summarizes the percent change (i.e., before stress versus after stress) in the salivary alpha-amylase levels of panelists exposed to fragrance compounds of the present disclosure during the stress test. In addition, the table illustrates the statistical significance of the change in alpha-amylase levels (i.e., p-value or probability value, P) of each of the fragrance compounds as compared to DPG, representing the change in the control (i.e., just DPG without a fragrance compound before stress and after stress).
# salivary cortisol = experiment: Timed mathematical and word stress test in panelists exposed to fragrance compound; salivary cortisol before vs after stress; format: in vivo, human; conditions: panelists' saliva, before vs immediately after stress test; single fragrance compound in DPG solvent; DPG control 10.8%
# Procedure: as §1, §2
# as §3, with “Table 1-B” for “Table 1-A”, “salivary cortisol” for “salivary alpha-amylase”, “in salivary cortisol” for “in alpha-amylase”
Compound,"% Change in Alpha-amylase (i.e., before versus after stress) (salivary alpha-amylase) [%]","% Change in Cortisol (i.e., before versus after stress) (salivary cortisol) [%]"
"CC(=O)C1(C)CC2=C(CCCC2(C)C)CC1C (stereo not shown) [1-(1,2,3,4,5,6,7,8-octahydro-2,3,8,8,-tetramethyl-2-naphthyl)ethan-1-one]",−2.5,−11.9
COC(=O)OC1CCC=CCCC1 (stereo not shown) [1-cyclooct-4-enyl methyl carbonate],15.2,3.5
"CC(C)(C)C1CCC(=O)C(C(C)(C)C)C1 (stereo not shown) [2,4-di(tert-butyl)-cyclohexan-1-one]",10.9,8.3
"CC1(O)CCC2C(=CCCC2(C)C)C1 (stereo not shown) [2,5,5-trimethyl-1,3,4,4a,6,7-hexahydronaphthalen-2-ol]",5.1,30.0
CC(=O)OC1CCCCC1C(C)(C)C (stereo not shown) [2-tert-butylcyclohexyl acetate],−4.3,−14.2
CC(C=O)Cc1ccc(C(C)C)cc1 (stereo not shown) [3-(4-isopropylphenyl)-2-methylpropanal],4.8,17.73
CC1(C)CCC[C@]2(C)[C@H]3CCO[C@]3(C)CC[C@@H]12 [Ambroxide],−12.2,1.1
"CC(=O)O[C@@H]1C[C@@H]2CC[C@@]1(C)C2(C)C [Bornyl Acetate, L]",27.1,−13.0
CC12CCC(CC1=O)C2(C)C (stereo not shown) [Camphor],−11.6,−2.2
CC(C)=CCCC(C)=CC=O [Citral],7.5,−2.8
CC(C)=CCCC(C)CC=O (stereo not shown) [Citronellal],4.9,16.8
CC(C)=CCCC(C)CCO (stereo not shown) [Citronellol],1.2,3.4
C=CC(C)CCCC(C)(C)OC(C)=O (stereo not shown) [Dihydromyrcenyl Acetate],−3.9,−13.3
C=CC(C)CCC=C(C)C (stereo not shown) [Dihyrdomyrcene],23.6,−8.1
CC12CCC(CC1)C(C)(C)O2 [Eucalyptol],−11.1,−12.87
C=CC(=C)CCCC(C)(C)OC(C)=O [Myrcenyl Acetate],15.8,−6.9
"(1,7,7-trimethylbicyclo[2.2.1]hept-2-yl)-cyclohexanol",3.8,1.0
